Reference: US20240041842A1, “PHARMACEUTICAL COMPOSITION FOR INHIBITING CANCER METASTASIS” (INDUSTRY-ACADEMIC COOPERATION FOUNDATION, YONSEI UNIVERSITY, priority 2021, published 2024)

What was measured:
Assay type in all cases: cell-based, human
LC3 = assay: Autophagic flux (LC3 Western blot, mRFP-GFP-LC3 lysosomal delivery assay); settings: HBEC-KL cells; 50 uM chloroquine for 6 hours
[1] = tested on: total protein acetylation; assay: Western blot of total protein acetylation; settings: HBEC-KL; 50 uM chloroquine, 24 hours; same effect = reduced
Description: Cells were harvested, washed with PBS, and lysed on ice with RIPA buffer containing protease and phophatase inhibitor cocktail (GenDEPOT). After 15 minutes of incubation, the cell lysates were centrifuged at 15,000 rpm at 4° C. for 10 minutes. Protein concentration was measured by Bradford assay (Bio-rad, 500-0006). Equal amounts of total protein were placed on an SDS gel electrophoresis and transferred to a PVDF membrane (Bio-rad). The membrane was blocked with 5% skim milk for 1 hour at room temperature and incubated overnight at 4° C. with primary antibody in a buffer containing 0.1% Tween-20. Subsequently, the membrane was washed three times with Tween-PBS buffer and incubated for 1 hour at room temperature using a secondary antibody diluted in blocking buffer containing 0.1% Tween-20. Subsequently, the membrane was washed three times for 10 minutes each using Tween-TBS. Densitometry of Western blots was measured using ImageJ software.

Snail = assay: Western blot of Snail protein; settings: HBEC-KL cell line; chloroquine 12 to 48 hours
[2] = tested on: KRAS-mutant pancreatic cancer cells; assay: Matrigel invasion assay, pancreatic cancer cell lines; settings: 100 uM chloroquine, 24 hours
Description: FIG. 12C illustrates changes in matrigel invasiveness after treating the pancreatic cancer cell line with 100 uM chloroquine (CQ) for 24 hours, and the bright-field micrographs of cells infiltrating through the matrigel coated transwell membrane (top) and quantification results (bottom) are shown.
For the 2D invasion assay, the inserts were pre-coated with 300 μg/ml Matrigel (Coming, 354234). After staining with […] dye (Bio-Rad, 1450013), 1×10^5 live cells per 8-um-pore cell-culture insert (Costar. 3422) were seeded in 0.5% ACL medium. 10% ACL medium was added to the outside of the insert. In the case of lung cancer and pancreatic cancer cell lines, after inoculation in 1% RPMI medium, 20% RPMI medium was added to the outside of the insert. Plates were incubated for 24 hours at 37° C. After incubation, the insert was fixed with 3.7% PFA, washed, stained with 0.4% crystal violet, and the upper membrane was washed and dried.

SNAI1 gene = assay: Real-time PCR of SNAI1 gene; settings: HBEC-KL cell line; 50 uM chloroquine, 24 hours
Description: After synthesizing complementary DNA (cDNA) using the TOPscript·8 cDNA synthesis kit (Enzynomics, EZ0054), gRT-PCR was performed with TCPreal™ gRCR 2× PreMIX (SYBR Green with low ROX) (Enzynomics, RT501M). GAPDH and beta-actin were used for RNA normalization. qRT-PCR was performed with a StepOne Plus (Applied Biosystems) instrument.

acetylated Snail = assay: Immunoprecipitation-immunoblot of acetylated Snail; settings: KRAS-mutant pancreatic cancer cells; 100 uM chloroquine, 24 hours
Description: Cell lysates (1 μg protein) were incubated overnight at 4° C. on anti-FLAG® M2 Affinity Gel (Sigma, A2220) or anti-acetyl-lysine antibody coated agarose (ImmuneChem Pharmaceuticals, ICP0388). The immunoprecipitate was then washed three times in IP buffer, and the immunoprecipitated complex was dissolved and separated by boiling in IP buffer for 5 minutes.
For SDS-PAGE electrophoresis, the immunoprecipitated complex was transferred to a nitrocellulose membrane and the membrane was blocked and then incubated for 1 hour at room temperature with Primary antibody and secondary antibody (VeriBlot for IP Detection Reagent (HRP) (Abcam, #ab131366), and anti-mouse IgG tor IP (HRP) (Abeam, #ab131368)).
After washing 3 times, the membrane was incubated with the secondary antibody.

Intracellular acetyl-CoA = assay: Acetyl-CoA measurement; settings: KRAS-mutant pancreatic cancer cells; 100 uM chloroquine, 24 hours
Description: Intracellular acetyl-CoA levels were calculated in the pmol range using the PicoProbe Acetyl-CoA Assay Kit (Biovision, K317). […] After correcting the background in all readings, the value of each sample was determined and normalized to the protein concentration of each sample.

## CCN(CC)CCCC(C)Nc1ccnc2cc(Cl)ccc12 (stereo not shown) [CQ, chloroquine]
LC3
  LC3-II accumulation: high levels
[1]
  overall protein acetylation: the same effect
Snail
  expression level of Snail protein: reduced
[2]
  2D Matrigel transwell invasion: reduced
SNAI1 gene
  SNAI1 mRNA expression level: no change
Acetylated Snail
  acetylated Snail: reduced
Intracellular acetyl-CoA
  acetyl-CoA: reduced
